Like-named read-outs stand apart in the source and are kept apart here.
Columns and labels:
Assay type in all cases: in vivo
[1] = test system: Alopecurus myosuroides (ALOMY); assay: Test 1 glasshouse assay, pre-emergence herbicidal activity; conditions: 312 h, visual evaluation after 13 days, read-out: Percentage phytotoxicity ALOMY
Method in brief: (§1)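 Glasshouse test on soil-sown seed at 24/16° C day/night and 65% humidity. Application was a spray one day post-sowing, vehicle acetone/water (50:50) with 0.5% Tween 20. Readout: visual phytotoxicity percentage at day 13.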

[2] = test system: Echinochloa crus-galli (ECHCG); assay: as above; conditions: 312 h, visual evaluation after 13 days, read-out: Percentage phytotoxicity ECHCG
Method in brief: as §1

[3] = test system: Alopecurus myosuroides (ALOMY); assay: Test 1 glasshouse assay, post-emergence herbicidal activity; conditions: 312 h, after 13 days, read-out: Percentage phytotoxicity ALOMY
Method: (§2) Seeds of a variety of test species are sown in standard soil in pots. After cultivation for one day (pre-emergence) or after 8 days cultivation (post-emergence) under controlled conditions in a glasshouse (at 24/16° C., day/night; 14 hours light; 65% humidity), the plants are sprayed with an aqueous spray solution derived from the formulation of the “technical” (i.e. unformulated) active ingredient in acetone/water (50:50) solution containing 0.5% Tween 20 (polyoxyethylene sorbitan monolaurate, CAS Registry Number 9005-64-5). The test plants are then grown on under controlled conditions in a glasshouse (at 24/16° C., day/night; 14 hours light; 65% humidity) and watered twice daily. After 13 days for pre- or post-emergence, the test is evaluated visually, and an assessed percentage phytotoxicity score is given for each herbicidal application on each plant species (where 100%=total damage to plant; 0%=no damage to plant).
(§3) Test plants include the following: Abutilon theophrasti (ABUTH) and Amaranthus retroflexus (AMARE); these are all dicotyledonous (broadleaved) weeds. Setaria faberi (SETFA), Alopecurus myosuroides (ALOMY), and Echinochloa crus-galli (ECHCG); these are all grassy monocotyledonous weeds. Also: Zea mays (ZEAMX, corn/maize), which can be a grassy weed (“volunteer” corn) in some circumstances.
(§4) Lolium perenne (LOLPE), Alopecurus myosuroides (ALOMY), Echinochloa crus-galli (ECHCG), and Avena fatua (AVEFA); these are all grassy monocotyledonous weeds. Cool climate crop plant: Triticum aestivum (TRZAW, winter wheat).

[4] = test system: Echinochloa crus-galli (ECHCG); assay: as above; conditions: 312 h, after 13 days, read-out: Percentage phytotoxicity ECHCG
Method: as §2, §3, §4

[5] = test system: Triticum aestivum (TRZAW, winter wheat); assay: Test 2 glasshouse assay (IF50 formulation, X-77), post-emergence herbicidal activity; conditions: 360 h, 15 DAA, read-out: Post-emergence herbicidal activity (percentage phytotoxicity) TRZAW; for plant injury at 125 g/ha: application rate 125 g/ha; for plant injury at 30 g/ha: application rate 30 g/ha
Method: Seeds of a variety of monocotyledonous and dicotyledonous test plants are sown in standard soil in pots. The plants are cultivated for one day (for pre-emergence) or for about 12 days (for post-emergence) under controlled conditions in a glasshouse (warm climate species at 24/18° C., cool climate species at 20/16° C., both at day/night; 16 hours light; 65% humidity).
An “instant formulation”, known as the “IF50”, containing 50 g/liter (i.e. 5% w/v) of the “technical” (i.e. unformulated) active ingredient is prepared by dissolving the active ingredient in a mixture of organic solvents and emulsifier, details of which are provided in the Table below. This IF50 is then mixed with a small, variable amount of acetone to aid dissolution, before addition of a 0.2% v/v aqueous solution of the adjuvant X-77 (which is a mixture of alkyl aryl polyoxyethylene glycols and free fatty acids in isopropanol, CAS Registry number 11097-66-8), as the aqueous diluent, to form an aqueous spray solution which contains a predetermined concentration of the active ingredient (which varies depending on the application rate of the active ingredient to the plants) and 0.2% v/v of the adjuvant X-77. This aqueous spray solution is then sprayed onto the plants, after one day's cultivation (for pre-emergence), or after about 12 days' cultivation (range=10-13 days) (for post-emergence).
The test plants are then grown on, in a glasshouse (greenhouse) under controlled conditions (warm climate species at 24/18° C., cool climate species at 20/16° C., both at day/night; 16 hours light; 65% humidity) and are watered twice daily. 15 days after application of the test herbicide (15DAA) (for post-emergence), and 20 days after application of the test herbicide (20DAA) (for pre-emergence), the test plants are evaluated visually, and an assessed percentage phytotoxicity score is given for each herbicidal application on each plant species (with 100%=total damage to plant; 0%=no damage to plant).
Cool climate crop plants: Triticum aestivum (TRZAW, winter wheat), Brassica napus (BRSNN, rape, also called oilseed rape or rapeseed), Beta vulgaris (BEAVA, sugarbeet). Warm climate crop plants: Glycine max (GLXMA, soybean).

[6] = test system: Abutilon theophrasti (ABUTH); assay: Test 1 glasshouse assay, pre-emergence herbicidal activity; conditions: 312 h, visual evaluation after 13 days, read-out: Percentage phytotoxicity ABUTH
Method in brief: as §1

[7] = test system: Amaranthus retroflexus (AMARE); assay: as above; conditions: 312 h, visual evaluation after 13 days, read-out: Percentage phytotoxicity AMARE
Method in brief: as §1

Setaria faberi (SETFA) [8] = assay: as above; conditions: 312 h, visual evaluation after 13 days, read-out: Percentage phytotoxicity SETFA
Method in brief: as §1

[9] = test system: Abutilon theophrasti (ABUTH); assay: Test 1 glasshouse assay, post-emergence herbicidal activity; conditions: 312 h, post-emergence (Example 1B Table 1), after 13 days, read-out: Percentage phytotoxicity ABUTH
Method: as §2, §3

[10] = test system: Amaranthus retroflexus (AMARE); assay: as above; conditions: 312 h, post-emergence (Example 1B Table 1), after 13 days, read-out: Percentage phytotoxicity AMARE
Method: as §2, §3

Setaria faberi (SETFA) [11] = assay: as above; conditions: 312 h, post-emergence (Example 1B Table 1), after 13 days, read-out: Percentage phytotoxicity SETFA
Method: as §2, §3

[12] = test system: Zea mays (ZEAMX, corn/maize); assay: as above; conditions: 312 h, post-emergence (Example 1B Table 1), after 13 days, read-out: Percentage phytotoxicity ZEAMX
Method: as §2, §3

[13] = post-emergence (Example 1B Table 2)
[14] = post-emergence (Example 1B Table 1)

Row | SMILES | pest or weed control at 250 g/ha [1] [%] | pest or weed control at 250 g/ha [2] [%] | pest or weed control at 250 g/ha [3, 13] [%] | pest or weed control at 250 g/ha [4, 13] [%] | plant injury at 125 g/ha ([5]; visual score) [%] | pest or weed control at 250 g/ha [7] [%] | pest or weed control at 250 g/ha (Setaria faberi (SETFA) [8]) [%] | pest or weed control at 250 g/ha [9] [%] | pest or weed control at 250 g/ha [10] [%] | pest or weed control at 250 g/ha (Setaria faberi (SETFA) [11]) [%] | pest or weed control at 250 g/ha [12] [%] | pest or weed control at 250 g/ha [3, 14] [%] | pest or weed control at 250 g/ha [4, 14] [%] | plant injury at 30 g/ha ([5]; visual score) [%] | also measured
1 | C#CCC1C(=O)C(c2c(C)cc(C)cc2C)C(=O)C1CC#C (stereo not drawn) [Compound A42] | 100 | 80 | 90 | 100 | 0 |  |  |  |  |  |  |  |  |  | plant injury at 500 g/ha ([5]; application rate 500 g/ha, visual score 100%=total damage, 0%=no damage): 10%
2 | C#CCC1CC(=O)C(c2c(C)cc(C)cc2C)C1=O (stereo not drawn) [Compound A23] | 100 | 100 | 100 | 100 | 20 |  |  |  |  |  |  |  |  |  | pest or weed control at 62.5 g/ha [3, 13]: 90%; pest or weed control at 62.5 g/ha [4, 13]: 100%
3 | C#CCC1CC(=O)C(c2c(F)cc(-c3ccc(F)cc3F)cc2OC)C1=O (stereo not drawn) [Compound A21] | 80 | 90 |  |  |  | 0 | 90 | 40 | 30 | 100 | 100 | 70 | 100 |  | pest or weed control at 250 g/ha [6]: 10%; pest or weed control at 30 g/ha [9]: 0%; pest or weed control at 30 g/ha [10]: 10%; pest or weed control at 30 g/ha (Setaria faberi (SETFA) [11]): 80%; pest or weed control at 30 g/ha [12]: 100%; pest or weed control at 30 g/ha [3, 14]: 40%; pest or weed control at 30 g/ha [4, 14]: 90%
4 | C#CCC1CC(OC(C)=O)=C(c2c(C)cc(-c3ccc(F)cc3)cc2C)C1=O (stereo not drawn) [Compound A45] | 100 | 100 |  |  | 80 | 90 | 60 |  | 80 | 100 |  | 100 | 100 | 80 | pest or weed control at 62.5 g/ha [10]: 20%; pest or weed control at 62.5 g/ha (Setaria faberi (SETFA) [11]): 90%; pest or weed control at 62.5 g/ha [3, 14]: 90%; pest or weed control at 62.5 g/ha [4, 14]: 100%
5 | C#CCC1CC(=O)C(c2c(C)cc(-c3ccc(F)cc3)cc2C)C1=O (stereo not drawn) [Compound A1, 2-[4-(4-fluorophenyl)-2,6-dimethyl-phenyl]-4-prop-2-ynylcyclopentane-1,3-dione] | 100 | 100 |  |  | 80 | 80 | 90 |  | 70 | 100 |  | 100 | 100 | 80 | pest or weed control at 62.5 g/ha [10]: 30%; pest or weed control at 62.5 g/ha (Setaria faberi (SETFA) [11]): 90%; pest or weed control at 62.5 g/ha [3, 14]: 90%; pest or weed control at 62.5 g/ha [4, 14]: 100%
6 | C#CCC1CC(=O)C(c2cc(-c3ccc(Cl)cc3Cl)ccc2C)C1=O (stereo not drawn) [Compound A15] |  |  |  |  |  |  |  | 60 | 40 | 70 | 80 | 10 | 70 |  | plant injury at 250 g/ha ([5]; application rate 250 g/ha, visual score): 10%
7 | C#CCC1CC(=O)C(c2c(F)cc(-c3ccc(F)cc3)cc2OC)C1=O (stereo not drawn) [Compound A20, 2-[2-fluoro-4-(4-fluorophenyl)-6-methoxyphenyl]-4-prop-2-ynylcyclopentane-1,3-dione] | 90 | 100 |  |  |  | 70 | 100 | 60 | 70 | 100 | 100 | 100 | 100 |  | pest or weed control at 250 g/ha [6]: 70%; pest or weed control at 30 g/ha [9]: 0%; pest or weed control at 30 g/ha [10]: 0%; pest or weed control at 30 g/ha (Setaria faberi (SETFA) [11]): 80%; pest or weed control at 30 g/ha [12]: 90%; pest or weed control at 30 g/ha [3, 14]: 50%; pest or weed control at 30 g/ha [4, 14]: 80%
8 | C#CCC1CC(=O)C(c2c(CC)cc(C)cc2CC)C1=O (stereo not drawn) [Compound A25, 2-(2,6-diethyl-4-methyl-phenyl)-4-(prop-2-ynyl)-cyclopentane-1,3-dione] | 100 | 100 | 100 | 100 | 60 |  |  |  |  |  |  |  |  | 10 | pest or weed control at 62.5 g/ha [3, 13]: 90%; pest or weed control at 62.5 g/ha [4, 13]: 100%

From patent publication US10375956B2, “Herbicidally active 2-(substituted-phenyl)-cyclopentane-1,3-dione compounds and derivatives thereof” (Syngenta Limited, priority 2013, dated 2019)
